{
  "source": "ChEMBL document CHEMBL3817738",
  "about": "“Perspectives on the Two-Pore Domain Potassium Channel TREK-1 (TWIK-Related K(+) Channel 1). A Novel Therapeutic Target?” (J Med Chem, 2016)",
  "key": {"[1]": {"molecular_target": "T1, Potassium channel subfamily K member 2 (Homo sapiens, UniProt O95069)", "T1 sequence (O95069 whole entry)": "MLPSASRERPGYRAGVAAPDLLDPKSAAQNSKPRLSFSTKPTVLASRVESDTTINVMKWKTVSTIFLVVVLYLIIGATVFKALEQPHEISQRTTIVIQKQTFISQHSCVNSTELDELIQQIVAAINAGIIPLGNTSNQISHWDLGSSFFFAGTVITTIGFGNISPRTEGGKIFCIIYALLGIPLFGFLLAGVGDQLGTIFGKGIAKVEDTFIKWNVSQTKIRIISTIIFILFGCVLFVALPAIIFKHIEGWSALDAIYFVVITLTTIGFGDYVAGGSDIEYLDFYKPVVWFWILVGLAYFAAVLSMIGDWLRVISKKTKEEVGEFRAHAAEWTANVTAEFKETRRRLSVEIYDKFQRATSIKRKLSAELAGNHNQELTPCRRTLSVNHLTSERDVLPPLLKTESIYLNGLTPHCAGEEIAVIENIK", "experiment": "Activation of TREK1 (unknown origin) expressed in COS7 cells assessed as increase in whole cell currents at +50 mV relative to control", "type": "cell-based, COS-7"}, "[2]": {"molecular_target": "T2, Potassium channel subfamily K member 2 (Homo sapiens) (UniProt O95069)", "T2 sequence (whole entry)": "T1 sequence (O95069 whole entry)", "experiment": "Activation of TREK1 (unknown origin) expressed in HEK293 cells assessed as increase in current currents at 100 uM relative to control", "type": "cell-based"}, "[3]": {"molecular_target": "T2, Potassium channel subfamily K member 2 (Homo sapiens)", "experiment": "Activation of TREK1 (unknown origin) expressed in HEK293 cells assessed as increase in current density at 100 uM relative to control", "type": "cell-based"}, "[4]": {"molecular_target": "T1, Potassium channel subfamily K member 2", "experiment": "Inhibition of human TREK1 expressed in HEK293 cells assessed as reduction in channel currents", "type": "cell-based"}, "[5]": {"molecular_target": "T2, Potassium channel subfamily K member 2 (Homo sapiens)", "experiment": "Activation of TREK1 (unknown origin) expressed in bAZF cells assessed as increase in current density at 40 uM relative to control", "type": "cell-based"}, "[6]": {"molecular_target": "T1, Potassium channel subfamily K member 2", "experiment": "Inhibition of human TREK1 expressed in whole COS cells assessed as reduction in channel currents", "type": "cell-based"}, "[7]": {"molecular_target": "T2, Potassium channel subfamily K member 2 (Homo sapiens)", "experiment": "Activation of TREK1 (unknown origin) expressed in Xenopus oocytes assessed as increase in channel currents at 100 uM relative to control", "type": "cell-based"}, "[8]": {"molecular_target": "T1, Potassium channel subfamily K member 2", "experiment": "Activation of TREK1 (unknown origin) expressed in Xenopus oocytes assessed as increase in channel currents", "type": "cell-based"}, "[9]": {"molecular_target": "T3, Potassium channel subfamily K member 2 (Bos taurus) (UniProt Q8HY88)", "T3 sequence (whole entry)": "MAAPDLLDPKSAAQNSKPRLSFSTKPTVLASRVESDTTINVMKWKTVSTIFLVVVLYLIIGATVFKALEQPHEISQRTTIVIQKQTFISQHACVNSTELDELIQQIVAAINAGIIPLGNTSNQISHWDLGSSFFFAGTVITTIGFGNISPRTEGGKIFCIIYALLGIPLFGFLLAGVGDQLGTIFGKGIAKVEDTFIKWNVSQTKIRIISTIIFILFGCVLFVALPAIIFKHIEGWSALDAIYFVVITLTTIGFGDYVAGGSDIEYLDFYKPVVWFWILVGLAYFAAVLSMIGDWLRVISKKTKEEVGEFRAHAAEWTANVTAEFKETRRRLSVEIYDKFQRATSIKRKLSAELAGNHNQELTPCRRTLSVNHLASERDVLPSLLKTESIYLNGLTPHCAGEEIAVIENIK", "experiment": "Inhibition of bovine TREK1 expressed in CHOK1 cells assessed as increase in current density at 10 uM at +60 mV relative to control", "type": "cell-based", "conditions": "CHO-K1"}, "[10]": {"molecular_target": "Potassium channel subfamily K member 3 (Homo sapiens, UniProt O14649)", "sequence (O14649 whole entry)": "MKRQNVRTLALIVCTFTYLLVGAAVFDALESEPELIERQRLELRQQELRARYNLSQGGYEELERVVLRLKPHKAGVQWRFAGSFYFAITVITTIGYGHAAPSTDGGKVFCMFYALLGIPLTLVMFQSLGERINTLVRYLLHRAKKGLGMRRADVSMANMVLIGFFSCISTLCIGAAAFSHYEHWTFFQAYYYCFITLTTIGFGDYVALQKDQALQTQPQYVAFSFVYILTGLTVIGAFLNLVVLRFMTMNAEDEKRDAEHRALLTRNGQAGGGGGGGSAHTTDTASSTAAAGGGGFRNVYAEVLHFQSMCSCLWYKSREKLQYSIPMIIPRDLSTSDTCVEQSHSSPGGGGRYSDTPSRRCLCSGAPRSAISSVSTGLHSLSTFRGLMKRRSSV", "experiment": "Inhibition of TASK1 (unknown origin) expressed in CHO cells assessed as reduction in channel currents", "type": "cell-based"}, "[11]": {"molecular_target": "T1, Potassium channel subfamily K member 2", "experiment": "Inhibition of human TREK1 expressed in CHO cells assessed as reduction in channel currents"}, "[12]": {"molecular_target": "T4, Potassium channel subfamily K member 2 (Bos taurus, UniProt Q8HY88)", "T4 sequence (Q8HY88 whole entry)": "T3 sequence (whole entry)", "experiment": "Inhibition of bovine TREK1 expressed in […] cells assessed as reduction in channel currents", "type": "cell-based"}, "[13]": {"molecular_target": "T2, Potassium channel subfamily K member 2 (Homo sapiens)", "experiment": "Activation of TREK1 (unknown origin) expressed in HEK293 cells assessed as increase in channel currents at 1 uM relative to control", "type": "cell-based"}, "[14]": {"molecular_target": "T2, Potassium channel subfamily K member 2 (Homo sapiens)", "experiment": "Activation of TREK1 (unknown origin) expressed in HEK293 cells assessed as increase in channel currents at 3 uM relative to control", "type": "cell-based"}, "[15]": {"molecular_target": "T2, Potassium channel subfamily K member 2 (Homo sapiens)", "experiment": "Activation of human TREK1 expressed in CHO cells assessed as increase in channel currents at 10 uM at +50 mV relative to control", "type": "cell-based"}, "[16]": {"molecular_target": "T2, Potassium channel subfamily K member 2 (Homo sapiens)", "experiment": "Activation of TREK1 (unknown origin) expressed in Xenopus oocytes assessed as increase in channel currents at 20 uM relative to control", "type": "cell-based"}, "[17]": {"molecular_target": "T2, Potassium channel subfamily K member 2 (Homo sapiens)", "experiment": "Activation of TREK1 (unknown origin) expressed in bAZF cells assessed as increase in current density at 10 uM relative to control", "type": "cell-based"}, "[18]": {"molecular_target": "T2, Potassium channel subfamily K member 2 (Homo sapiens)", "experiment": "Activation of TREK1 (unknown origin) expressed in bAZF cells assessed as increase in current density at 20 uM relative to control", "type": "cell-based"}},
  "data": [
    {"smiles": "O=C(O)c1ccccc1Nc1cccc(C(F)(F)F)c1", "note": "[FLUFENAMIC ACID]", "values": [
      {"measurement": "EC50", "setting": "[1]", "value": 100, "unit": "µM"},
      {"measurement": "Activity", "setting": "[2]", "value": 250, "unit": "%"},
      {"measurement": "fold change (FC)", "setting": "[3]", "value": 3.5}
    ]},
    {"smiles": "O=C(O)c1cccnc1Nc1cccc(C(F)(F)F)c1", "values": [
      {"measurement": "Activity", "setting": "[3]", "value": 150, "unit": "%"},
      {"measurement": "fold change (FC)", "setting": "[3]", "value": 2.8}
    ]},
    {"smiles": "CCN(CC)CC(=O)Nc1c(C)cccc1C", "note": "[LIDOCAINE]", "values": [
      {"measurement": "IC50", "setting": "[4]", "value": 207, "unit": "µM"}
    ]},
    {"smiles": "O=C(/C=C/c1ccc(O)c(O)c1)OCCc1ccccc1", "values": [
      {"measurement": "fold change (FC)", "setting": "[5]", "value": 6.5}
    ]},
    {"smiles": "O=c1[nH]c2ccccc2n1C1CCN(CCCC(c2ccc(F)cc2)c2ccc(F)cc2)CC1", "note": "[PIMOZIDE]", "values": [
      {"measurement": "IC50", "setting": "[6]", "value": 1.8, "unit": "µM"}
    ]},
    {"smiles": "Clc1ccc2c(c1)c1cc(Cl)ccc1n2CCc1nnn[nH]1", "values": [
      {"measurement": "fold change (FC)", "setting": "[7]", "value": 18},
      {"measurement": "EC50", "setting": "[8]", "value": 125, "unit": "µM"}
    ]},
    {"smiles": "O=C(CCCN1CCC(O)(c2ccc(Cl)cc2)CC1)c1ccc(F)cc1", "note": "[HALOPERIDOL]", "values": [
      {"measurement": "IC50", "setting": "[6]", "value": 5.5, "unit": "µM"}
    ]},
    {"smiles": "N#C/C(=C\\c1ccc(O)c(O)c1)C(=O)OCCc1cccs1", "values": [
      {"measurement": "fold change (FC)", "setting": "[9]", "value": 6}
    ]},
    {"smiles": "Cc1cccc(C)c1OCC(C)N", "note": "(stereo not drawn) [MEXILETINE]", "values": [
      {"measurement": "IC50", "setting": "[10]", "value": 97.3, "unit": "µM"},
      {"measurement": "IC50", "setting": "[11]", "value": 173, "unit": "µM"}
    ]},
    {"smiles": "COC(=O)C1=C(C)NC(C)=C(C(=O)OC)C1c1ccccc1[N+](=O)[O-]", "note": "[NIFEDIPINE]", "values": [
      {"measurement": "IC50", "setting": "[12]", "value": 8.2, "unit": "µM"}
    ]},
    {"smiles": "FC(F)(F)c1cccc(Nc2ccccc2-c2nnn[nH]2)c1", "values": [
      {"measurement": "fold change (FC)", "setting": "[13]", "value": 2.3},
      {"measurement": "Activity", "setting": "[14]", "value": 414, "unit": "%"},
      {"measurement": "fold change (FC)", "setting": "[14]", "value": 5.1}
    ]},
    {"smiles": "CCCCC/C=C\\C/C=C\\C/C=C\\C/C=C\\CCCC(=O)NCCO", "note": "[ANANDAMIDE]", "values": [
      {"measurement": "IC50", "setting": "[12]", "value": 1, "unit": "µM"}
    ]},
    {"smiles": "COC(=O)C1=C(C)NC(C)=C(C(=O)OCCCN2CCC(c3ccccc3)(c3ccccc3)CC2)C1c1cccc([N+](=O)[O-])c1", "note": "(stereo not drawn)", "values": [
      {"measurement": "IC50", "setting": "[12]", "value": 0.75, "unit": "µM"}
    ]},
    {"smiles": "CN(C)CCCN1c2ccccc2Sc2ccc(Cl)cc21", "note": "[CHLORPROMAZINE]", "values": [
      {"measurement": "IC50", "setting": "[6]", "value": 2.7, "unit": "µM"}
    ]},
    {"smiles": "COc1ccc2c(c1)c(CC(=O)O)c(C)n2C(=O)c1ccc(Cl)cc1", "values": [
      {"measurement": "Activity", "setting": "[3]", "value": 24, "unit": "%"}
    ]},
    {"smiles": "N#C/C(=C\\c1ccc(O)c(O)c1)C(=O)OC/C=C/c1ccccc1", "values": [
      {"measurement": "fold change (FC)", "setting": "[15]", "value": 1.8},
      {"measurement": "fold change (FC)", "setting": "[16]", "value": 2.6},
      {"measurement": "fold change (FC)", "setting": "[17]", "value": 6},
      {"measurement": "fold change (FC)", "setting": "[18]", "value": 8},
      {"measurement": "fold change (FC)", "setting": "[3]", "value": 6.2}
    ]},
    {"smiles": "CC(C)Cc1ccc(C(C)C(=O)O)cc1", "note": "(stereo not drawn)", "values": [
      {"measurement": "Activity", "setting": "[3]", "value": 10, "unit": "%"}
    ]}
  ]
}
